Like-named read-outs stand apart in the source and are kept apart here.
Columns and labels:
serum uric acid (sUA) [1] = assay: Phase 3 pegloticase trials: AUC of mean sUA levels over time; type: in vivo, human; parameters: AUC of mean sUA levels, responders / AUC of mean sUA levels, non-responders: unit not given beside the values; settings: for Area Under Curve of Mean sUA Levels Over Time Up to 20 Weeks: combined weighted average for responders and non-responders, digitized, extrapolated to 20 weeks
Method: For comparison, the Phase 3 pegloticase trials (John S. Sundy, MD, PhD; Herbert S. B. Baraf, MD; Robert A. Yood, MD; et al. Efficacy and Tolerability of Pegloticase for the Treatment of Chronic Gout in Patients Refractory to Conventional Treatment: Two Randomized Controlled Trials. JAMA. 2011; 306(7):711-720) were examined to determine the number of flares per month and the area under the curve (AUC) of mean serum uric acid (sUA) levels over time (up to 20 weeks). Subjects were given 0.6 mg of colchicine once or twice daily (or a nonsteroidal anti-inflammatory drug) one week before first infusion, which continued throughout the study. The study also included prophylaxis against infusion related reactions (IRs) before each infusion. The subjects were administered oral fexofenadine (60 mg) the evening before and again immediately before, the infusion, as well as acetaminophen 1000 mg) and IV hydrocortisone (200 mg) immediately before the infusion. Data points were obtained from Table 2, which presents the biweekly/monthly flare per patient month. Data points were also identified using a graph digitizer for FIG. 2 of the aforementioned reference. The data was extrapolated to 20 weeks. The AUC of mean sUA levels over time (up to 20 weeks) and the flares per patient month were calculated using the combined weighted average for responders and non-responders for sUA AUC. […] Similar calculations were performed to obtain the monthly data.

[2] = Combination assessment of flare frequency and AUC of mean sUA; type: in vivo, human
Method: Anti-drug antibodies (ADAs) can be a complication with treatment with soluble therapeutic proteins, such as the possibility of reduced efficacy. In addition, with treatment of subjects with conditions associate with gout, gout flares can increase when efficacy is increased. […] Specifically, a combination assessment of glare frequency as well as the area under the curve of mean sUA (serum uric acid) levels over time was performed. The finding of both improved efficacy and reduced gout flares was surprising with the SEL-212 study drug and anti-inflammatory treatment.
The tabulated data outlining the comparison in flare frequency between the different medications alongside their efficacy in reducing serum uric acid (sUA) is compiled in Table 4.
In addition, a combination assessment of glare frequency as well as the area under the cruve of mean sUA levels over time show both improved efficacy and reduced gout flares. […] Here, with the SEL-212 study drug and anti-inflammatory treatment, both efficacy and gout flare reduction can be achieved.

uric acid = settings: cited from earlier work
ADAs = settings: all KRYSTEXXA-treated subjects; cited from earlier work
[3] = tested on: patients with chronic gout refractory to conventional treatment; settings: cited from earlier work
[4] = tested on: patients with hyperuricemia and gout; assay: Phase 3 febuxostat trial: gout flares, first 8 weeks; type: in vivo, human; settings: first 8 weeks with gout flare prophylaxis
Source text: (§1) Further comparisons can be made with the primary branded oral uric acid lowering medication, febuxostat. In a phase 3, randomized, double-blind, multi-center trial, the safety and efficacy of febuxostat was studied over 52 weeks (Michael A. Becker, M. D., H. Ralph Schumacher, Jr., M. D., Robert L. Wortmann, M. D., Patricia A. MacDonald, B. S. N., N. P., Denise Eustace, B. A., William A. Palo, M. S., Janet Streit, M. S., and Nancy Joseph-Ridge, M. D. Febuxostat Compared with Allopurinol in Patients with Hyperuricemia and Gout. N Engl J Med 2005; 353:2450-2461Dec. 8, 2005). The comparison period for this analysis included only the first 8 weeks of that study, when gout flare prophylaxis (naproxen or colchicine) was administered. Data points were identified using a graph digitizer for FIG. 1 of the above reference. At a dose of 80 mg/day, 55 out of 255 subjects required treatment for at least one gout flare. This would be the equivalent to a flare frequency of at least 0.22 flares per patient month, and possibly more. At a dose of 120 mg/day, 90 out of 250 subjects required treatment for at least one gout flare, equating to at least a flare frequency of 0.36 flares per patient month, and possibly more.

serum uric acid (sUA) [5] = assay: Phase 3 febuxostat trial: AUC of mean sUA levels over time; type: in vivo, human; settings: data points from graph digitizer
Source text: as §1, with “The comparison period for this analysis included only the first 8 weeks of that study, when gout flare prophylaxis (naproxen or colchicine) was administered.” left out

[6] = tested on: patients with hyperuricemia and gout; settings: first 8 weeks, cited from earlier work
[7] = monthly dosing, four weeks after first dose

## Pegloticase
Serum uric acid (sUA) [1]; Pegloticase biweekly group, non-responders, cut to 20 weeks
  AUC of mean sUA levels, non-responders: 102.0
Serum uric acid (sUA) [1]; Pegloticase biweekly group, responders
  AUC of mean sUA levels, responders: 12.3
Serum uric acid (sUA) [1]; Pegloticase biweekly
  Area Under Curve of Mean sUA Levels Over Time Up to 20 Weeks: 64.0
Serum uric acid (sUA) [1]; Pegloticase monthly
  Area Under Curve of Mean sUA Levels Over Time Up to 20 Weeks: 94.4
[2]; Pegloticase biweekly
  Flares per patient month * AUC: 33.28
[2]; Pegloticase monthly
  Flares per patient month * AUC: 66.05
Uric acid; monthly dosing cohorts
  non-responders, share of subjects: 65%
  subjects classified as responders (uric acid below 6 mg/dl for 80% of the time at months three and six): 35%
Uric acid; [7]
  mean uric acid levels at four weeks, non-responders: above 6 mg/dl
  mean uric acid levels at four weeks, responders: above 4 mg/dl
ADAs
  treated subjects that developed ADAs: 89%
[3]; Pegloticase biweekly
  Flares per patient month: 0.52 flares per patient month
[3]; Pegloticase monthly
  Flares per patient month: 0.70 flares per patient month

## Cc1nc(-c2ccc(OCC(C)C)c(C#N)c2)sc1C(=O)O [Febuxostat, febuxostat]
[4]; Febuxostat 80 mg/day
  Flares per patient month: 0.22 flares per patient month
[4]; Febuxostat 80 mg/day, listed as febuxostat
  Flares per patient month: at least 0.22 flares per patient month
[4]; Febuxostat 120 mg/day
  Flares per patient month: 0.36 flares per patient month
[4]; Febuxostat 120 mg/day, listed as febuxostat
  Flares per patient month: ≥ 0.36 flares per patient month
Serum uric acid (sUA) [5]; Febuxostat 80 mg/day
  Area Under Curve of Mean sUA Levels Over Time Up to 20 Weeks: 108.3
Serum uric acid (sUA) [5]; Febuxostat 120 mg/day
  Area Under Curve of Mean sUA Levels Over Time Up to 20 Weeks: 93.4
[2]; Febuxostat 80 mg/day
  Flares per patient month * AUC: 23.83
[2]; Febuxostat 120 mg/day
  Flares per patient month * AUC: 33.62
[6]; Febuxostat 80 mg/day
  subjects that required treatment for at least one gout flare: 55 out of 255
[6]; Febuxostat 120 mg/day
  subjects that required treatment for at least one gout flare: 90 out of 250

Source: patent US12194078B2, “Methods and compositions related to combined treatment with anti-inflammatories and synthetic nanocarriers comprising an immunosuppressant” (Cartesian Therapeutics, Inc., priority 2017, dated 2025)
